Source: ChEMBL document CHEMBL4265897, “Discovery of benzothiazole amides as potent antimycobacterial agents” (Bioorg Med Chem Lett, 2018)
In brackets after ≈: the same amount, converted by molar mass.

How the values were obtained:
[1] = tested on: Mycobacterium tuberculosis; assay: Antimycobacterial activity against Mycobacterium tuberculosis H37Rv MC2 6206 by CLSI method; type: functional
[2] = tested on: Mycobacteroides abscessus; assay: Antimycobacterial activity against Mycobacterium abscessus 21 by CLSI method; type: functional
[3] = tested on: Mycolicibacterium peregrinum; assay: Antimycobacterial activity against Mycobacterium peregrinum ATCC 700686 by CLSI method; type: functional
[4] = tested on: Mycolicibacterium fortuitum; assay: Antimycobacterial activity against Mycobacterium fortuitum 41 by CLSI method; type: functional
Mycobacterium avium = assay: Antimycobacterial activity against Mycobacterium avium 101 by CLSI method; type: functional
Mycobacteroides chelonae = assay: Antimycobacterial activity against Mycobacterium chelonae 93 by CLSI method; type: functional
[5] = tested on: Mycobacteroides abscessus; assay: Antimycobacterial activity against Mycobacterium massiliense 119 by CLSI method; type: functional, Mycobacterium abscessus subsp. massiliense
[6] = tested on: Mycobacteroides abscessus; assay: Antimycobacterial activity against Mycobacterium abscessus 1 by CLSI method; type: functional
[7] = tested on: Mycobacterium intracellulare; assay: Antimycobacterial activity against Mycobacterium intracellulare 1956 by CLSI method; type: functional
[8] = tested on: Mycobacteroides abscessus; assay: Antimycobacterial activity against Mycobacterium abscessus 79 by CLSI method; type: functional
[9] = tested on: Mycobacteroides abscessus; assay: Antimycobacterial activity against Mycobacterium abscessus 103 by CLSI method; type: functional
[10] = tested on: Mycobacteroides abscessus; assay: Antimycobacterial activity against Mycobacterium abscessus ATCC 19977 by CLSI method; type: functional

Compound | MIC [1] [µg/mL] | MIC [2] [µg/mL] | MIC [3] [µg/mL] | MIC [4] [µg/mL] | MIC (Mycobacterium avium) [µg/mL] | MIC (Mycobacteroides chelonae) [µg/mL] | MIC [5] [µg/mL] | MIC [6] [µg/mL] | MIC [7] [µg/mL] | MIC [8] [µg/mL] | MIC [9] [µg/mL] | MIC [10] [µg/mL]
CC1CCCC(C(=O)Nc2nc3ccc(C(F)(F)F)cc3s2)C1 (stereo not given) | 16 (≈ 46.7 µM) | 2 (≈ 5.84 µM) | 1 (≈ 2.92 µM) | 2 (≈ 5.84 µM) | 16 (≈ 46.7 µM) | 1 (≈ 2.92 µM) | 2 (≈ 5.84 µM) | 4 (≈ 11.7 µM) | 16 (≈ 46.7 µM) | 2 (≈ 5.84 µM) | – | –
CC1CC(C(=O)Nc2nc3ccc(C(F)(F)F)cc3s2)CC(C)(C)C1 (stereo not given) | – | 0.5 (≈ 1.35 µM) | 0.25 (≈ 0.675 µM) | 0.5 (≈ 1.35 µM) | > 64 | 0.25 (≈ 0.675 µM) | 2 (≈ 5.4 µM) | 0.5 (≈ 1.35 µM) | > 64 | 0.5 (≈ 1.35 µM) | – | –
CC1CC(C(=O)Nc2nc3cccc(O)c3s2)CC(C)(C)C1 (stereo not given) | – | 16 (≈ 50.2 µM) | 0.12 (≈ 0.377 µM) | 2 (≈ 6.28 µM) | – | 1 (≈ 3.14 µM) | 2 (≈ 6.28 µM) | – | 4 (≈ 12.6 µM) | 8 (≈ 25.1 µM) | 2 (≈ 6.28 µM) | –
CC1CC(C(=O)Nc2nc3cccc(F)c3s2)CC(C)(C)C1 (stereo not given) | 1 (≈ 3.12 µM) | 0.25 (≈ 0.78 µM) | 0.06 (≈ 0.187 µM) | 0.12 (≈ 0.374 µM) | 8 (≈ 25 µM) | 0.5 (≈ 1.56 µM) | 0.25 (≈ 0.78 µM) | 0.5 (≈ 1.56 µM) | 16 (≈ 49.9 µM) | 0.25 (≈ 0.78 µM) | 0.5 (≈ 1.56 µM) | –
CC1CC(C(=O)Nc2nc3c(F)cc(Br)cc3s2)CC(C)(C)C1 (stereo not given) | – | 0.5 (≈ 1.25 µM) | 0.5 (≈ 1.25 µM) | 2 (≈ 5.01 µM) | > 64 | 0.25 (≈ 0.626 µM) | 1 (≈ 2.5 µM) | 1 (≈ 2.5 µM) | 16 (≈ 40.1 µM) | 0.5 (≈ 1.25 µM) | 1 (≈ 2.5 µM) | –
CC1CC(C(=O)Nc2nc3cc(F)cc(F)c3s2)CC(C)(C)C1 (stereo not given) | – | 0.25 (≈ 0.739 µM) | 0.12 (≈ 0.355 µM) | 0.25 (≈ 0.739 µM) | 8 (≈ 23.6 µM) | 0.25 (≈ 0.739 µM) | 0.25 (≈ 0.739 µM) | 0.5 (≈ 1.48 µM) | 8 (≈ 23.6 µM) | 0.25 (≈ 0.739 µM) | 0.25 (≈ 0.739 µM) | –
O=C(Nc1nc2ccc(C(F)(F)F)cc2s1)C1CC2CCC1C2 (stereo not given) | – | – | – | – | 32 (≈ 94 µM) | – | – | – | 32 (≈ 94 µM) | – | – | > 64
O=C(Nc1nc2ccc(C(F)(F)F)cc2s1)C1CCCC(C(F)(F)F)C1 (stereo not given) | – | 1 (≈ 2.52 µM) | 1 (≈ 2.52 µM) | 2 (≈ 5.05 µM) | 16 (≈ 40.4 µM) | 0.5 (≈ 1.26 µM) | 1 (≈ 2.52 µM) | 2 (≈ 5.05 µM) | 16 (≈ 40.4 µM) | 2 (≈ 5.05 µM) | – | –
CC1(C)CCC(C(=O)Nc2nc3ccc(C(F)(F)F)cc3s2)CC1 | – | – | – | – | 64 (≈ 180 µM) | – | – | – | 64 (≈ 180 µM) | – | – | > 64
CC1CC(C(=O)Nc2nc3c(F)c(F)c(F)cc3s2)CC(C)(C)C1 (stereo not given) | 1 (≈ 2.81 µM) | 0.5 (≈ 1.4 µM) | 0.12 (≈ 0.337 µM) | 0.25 (≈ 0.701 µM) | > 64 | 0.25 (≈ 0.701 µM) | 0.5 (≈ 1.4 µM) | 0.5 (≈ 1.4 µM) | > 64 | 0.25 (≈ 0.701 µM) | 0.5 (≈ 1.4 µM) | –
CC12CCCC(C(=O)Nc3nc4ccc(OC(F)F)cc4s3)(CCC1)C2 | – | 0.12 (≈ 0.315 µM) | 0.12 (≈ 0.315 µM) | 1 (≈ 2.63 µM) | 8 (≈ 21 µM) | 0.25 (≈ 0.657 µM) | 0.12 (≈ 0.315 µM) | 0.25 (≈ 0.657 µM) | 4 (≈ 10.5 µM) | 0.12 (≈ 0.315 µM) | – | –
CC1CC(C(=O)Nc2nc3ccc(F)cc3s2)CC(C)(C)C1 (stereo not given) | 4 (≈ 12.5 µM) | 0.5 (≈ 1.56 µM) | 0.06 (≈ 0.187 µM) | 0.25 (≈ 0.78 µM) | 8 (≈ 25 µM) | 0.25 (≈ 0.78 µM) | 0.25 (≈ 0.78 µM) | 0.5 (≈ 1.56 µM) | 8 (≈ 25 µM) | 0.5 (≈ 1.56 µM) | 0.25 (≈ 0.78 µM) | –
O=C(Nc1nc2ccc(OC(F)(F)F)cc2s1)C1CCCCCC1 | 64 (≈ 179 µM) | > 64 | > 64 | > 64 | > 64 | 32 (≈ 89.3 µM) | > 64 | > 64 | > 64 | > 64 | > 64 | –
CC12CCCC(C(=O)Nc3nc4ccc(C(F)(F)F)cc4s3)(CCC1)C2 | – | 0.25 (≈ 0.654 µM) | 0.12 (≈ 0.314 µM) | 0.5 (≈ 1.31 µM) | > 8 | 0.5 (≈ 1.31 µM) | 0.25 (≈ 0.654 µM) | 0.5 (≈ 1.31 µM) | 4 (≈ 10.5 µM) | 0.25 (≈ 0.654 µM) | 0.12 (≈ 0.314 µM) | –
CC1CC(C(=O)Nc2nc3c(Cl)cccc3s2)CC(C)(C)C1 (stereo not given) | – | 2 (≈ 5.94 µM) | 1 (≈ 2.97 µM) | 4 (≈ 11.9 µM) | > 64 | 2 (≈ 5.94 µM) | 1 (≈ 2.97 µM) | 2 (≈ 5.94 µM) | 16 (≈ 47.5 µM) | 4 (≈ 11.9 µM) | – | 16 (≈ 47.5 µM)
CC1(C(=O)Nc2nc3ccc(OC(F)(F)F)cc3s2)CCCCCC1 | – | 0.12 (≈ 0.322 µM) | 0.5 (≈ 1.34 µM) | 2 (≈ 5.37 µM) | 8 (≈ 21.5 µM) | 0.25 (≈ 0.671 µM) | 0.12 (≈ 0.322 µM) | 0.25 (≈ 0.671 µM) | 4 (≈ 10.7 µM) | 0.12 (≈ 0.322 µM) | 0.25 (≈ 0.671 µM) | –
